Results reported in US20250120922A1, “COMPOSITION FOR IMPROVING COW REPRODUCTIVE ABILITY” (SOLOMON CO., LTD., priority 2022, published 2025).
Several values for one entry are separate records, joined by “and”; a condition that tells them apart may be missing. Equal values may be shown once.

Test system: cows after calving
Test: Effect of improving cow reproductive ability (first return to estrus after calving, composition mounted on the leash)
Format: in vivo
Conditions: for First return to estrus day after calving: leash mounting type, 3 heads
Excerpt: The mixture was poured into a wax tray and completely hardened to prepare a composition for improving cow reproductive ability.
By using the composition prepared in Example 2, the effect of improving the cow reproductive ability was confirmed after being mounted on the leash of cows after calving. The first return to estrus after calving was generally known to be 60 to 90 days, and in the experiment, confirmed to be average 84.20±6.64 in the case of cow used as a control group.

Q: What does the source list for Cc1ccc(O)cc1 [p-cresol]?
A: First return to estrus day after calving (1% p-cresol in paraffin wax block): 46 ± 4 days; First return to estrus day after calving (5% p-cresol in paraffin wax block): 28 days and 28 ± 4 days; Return of estrus earlier than the earliest normal return time of estrus (approximately 45 days after calving) (5% p-cresol pheromone block): about 17 days
